Source: BigSolDB 2.1

CN(C)CCC=C1c2ccccc2CCc2ccccc21.Cl
solubility (mole fraction)
Conditions	278.15 K	283.15 K	288.15 K	293.15 K	298.15 K	303.15 K	308.15 K	313.15 K	318.15 K	323.15 K
in 2-butoxyethanol	0.0451	0.0494	0.0531	0.0595	0.066	0.0722	0.0793	0.0864	0.0942	0.102
in 2-ethoxyethanol	0.084	0.0895	0.0954	0.101	0.108	0.115	0.123	0.132	0.141	0.151
in 2-methoxyethanol	0.127	0.132	0.138	0.143	0.149	0.155	0.162	0.169	0.177	0.185
in 2-propoxyethanol	0.06	0.0641	0.0686	0.075	0.0814	0.0881	0.0955	0.103	0.111	0.119
in DMF	0.0295	0.0323	0.0354	0.0388	0.0423	0.0466	0.0509	0.0557	0.0611	0.0674
in NMP	0.0311	0.0342	0.0372	0.0412	0.0448	0.0492	0.0543	0.0594	0.0652	0.0716
in ethanol	0.0337	0.0423	0.0528	0.0653	0.0794	0.0938	0.108	0.122	0.136	0.148
in methanol	0.144	0.152	0.16	0.168	0.175	0.183	0.189	0.196	0.202	0.207
in n-butanol	0.0148	0.0187	0.0242	0.0316	0.0405	0.0508	0.0628	0.0765	0.091	0.105
in n-heptanol	0.0101	0.0124	0.0151	0.0184	0.0225	0.0274	0.0333	0.0402	0.0484	0.0581
in n-hexanol	0.0116	0.0145	0.0176	0.0217	0.027	0.0332	0.0407	0.0492	0.0595	0.0712
in n-octanol	0.00215	0.00267	0.00322	0.00388	0.00471	0.00568	0.00688	0.00824	0.00991	0.012
in n-pentanol	0.0127	0.0162	0.02	0.025	0.0321	0.04	0.0497	0.0613	0.0743	0.0887
in n-propanol	0.0218	0.028	0.0357	0.0453	0.0572	0.0708	0.0855	0.101	0.117	0.131
